Measurements reported in ChEMBL document CHEMBL3244266, “Potential antiarthritic agents. 2. Benzoylacetonitriles and beta-aminocinnamonitriles” (J Med Chem, 1979).
Activity calls are given as the source filed them. The calls are words filed in the database; no cut-off is given here.

Assays:
Rattus norvegicus [1] = assay: Antiinflammatory activity against carrageenin-induced edema in rat; type: functional, organism-based
Rattus norvegicus [2] = assay: Antiinflammatory activity against adjuvant-induced arthritis rat model assessed as inhibition of swelling at 25 mg/kg, po measured on day 14 (reference value: 0%); type: functional; details: 336 h
Rattus norvegicus [3] = assay: Antiinflammatory activity against adjuvant-induced arthritis rat model assessed as inhibition of swelling at 50 mg/kg, po measured on day 14 (reference value: 0%); type: functional; details: 336 h
Rattus norvegicus [4] = assay: Ulcerogenicity in rat at 800 mg/kg administered daily; type: toxicity, organism-based; design: dose 800 mg/kg; details: in vivo
Rattus norvegicus [5] = assay: Antiinflammatory activity against adjuvant-induced arthritis rat model assessed as inhibition of swelling at 50 mg/kg, po measured on day 21 (reference value: 0%); type: functional; details: 504 h
Rattus norvegicus [6] = assay: Antiinflammatory activity against adjuvant-induced arthritis rat model assessed as inhibition of swelling at 100 mg/kg, po measured on day 21 (reference value: 0%); type: functional; details: 504 h
Rattus norvegicus [7] = assay: Antiinflammatory activity against adjuvant-induced arthritis rat model assessed as inhibition of swelling at 25 mg/kg, po measured on day 21 (reference value: 0%); type: functional; details: 504 h
Cavia porcellus [8] = organism: Cavia porcellus; assay: Antiinflammatory activity against UV-induced erythema in guinea pig; type: functional, organism-based
Rattus norvegicus [9] = assay: Antiinflammatory activity against adjuvant-induced arthritis rat model assessed as inhibition of swelling at 100 mg/kg, po measured on day 14 (reference value: 0%); type: functional; details: 336 h
Rattus norvegicus [10] = organism: Rattus norvegicus; assay: Antiinflammatory activity against adjuvant-induced arthritis in rat assessed as inhibition of swelling; type: functional, organism-based
Rattus norvegicus [11] = assay: Antiinflammatory activity against adjuvant-induced arthritis rat model assessed as inhibition of swelling at 200 mg/kg, po measured on day 21 (reference value: 0%); type: functional; details: 504 h
Rattus norvegicus [12] = assay: Antiinflammatory activity against adjuvant-induced arthritis rat model assessed as inhibition of swelling at 200 mg/kg, po measured on day 14 (reference value: 0%); type: functional; details: 336 h
Rattus norvegicus [13] = assay: Antiinflammatory activity against adjuvant-induced arthritis rat model assessed as inhibition of swelling at 0.5 mg/kg, po measured on day 21 (reference value: 0%); type: functional; details: 504 h
Rattus norvegicus [14] = assay: Antiinflammatory activity against adjuvant-induced arthritis rat model assessed as inhibition of swelling at 0.5 mg/kg, po measured on day 14 (reference value: 0%); type: functional; details: 336 h
Rattus norvegicus [15] = assay: Antiinflammatory activity against adjuvant-induced arthritis rat model assessed as inhibition of swelling at 1 mg/kg, po measured on day 21 (reference value: 0%); type: functional; details: 504 h
Rattus norvegicus [16] = assay: Antiinflammatory activity against adjuvant-induced arthritis rat model assessed as inhibition of swelling at 2 mg/kg, po measured on day 14 (reference value: 0%); type: functional; details: 336 h
Rattus norvegicus [17] = assay: Antiinflammatory activity against adjuvant-induced arthritis rat model assessed as inhibition of swelling at 1 mg/kg, po measured on day 14 (reference value: 0%); type: functional; details: 336 h
Rattus norvegicus [18] = assay: Antiinflammatory activity against adjuvant-induced arthritis rat model assessed as inhibition of swelling at 2 mg/kg, po measured on day 21 (reference value: 0%); type: functional; details: 504 h
Cavia porcellus [19] = organism: Cavia porcellus; assay: Inhibition of prostaglandin synthetase in guinea pig lung assessed as net production of prostaglandin-like activity; details: tested as the 14C-labelled form
[20] = Drug recovery in rat urine assessed as total radioactivity at 50 mg/kg, po measured after 24 hrs by TLC/HPLC analysis; type: ADME, organism-based; design: dose 50 mg/kg, route oral; details: in vivo
Plasma = assay: Drug recovery in rat plasma assessed as total radioactivity at 50 mg/kg, po measured over 7-day period by TLC/HPLC analysis; type: ADME, organism-based; design: dose 50 mg/kg, route oral; details: in vivo
[21] = tested as the 14C-labelled form

SMILES	Activity (Rattus norvegicus [1])	inhibition in vivo at 25 mg/kg (Rattus norvegicus [2]) [%]	inhibition in vivo at 50 mg/kg (Rattus norvegicus [3]) [%]	Activity (Rattus norvegicus [4])	inhibition in vivo at 50 mg/kg (Rattus norvegicus [5]) [%]	inhibition in vivo at 100 mg/kg (Rattus norvegicus [6]) [%]	inhibition in vivo at 25 mg/kg (Rattus norvegicus [7]) [%]	Activity (Cavia porcellus [8])	inhibition in vivo at 100 mg/kg (Rattus norvegicus [9]) [%]	further results
N#C/C=C(\N)c1ccc(F)cc1	inactive	26	43	Non-toxic	25	29	14	inactive	53	–
N#CCC(=O)c1ccccc1F	inactive	54	51	Non-toxic	42	48	33	inactive	63	–
N#CCC(=O)c1ccsc1	inactive	52	55	Non-toxic	40	29	31	inactive	46	–
O=C(O)CNC(=O)c1ccccc1	–	–	–	–	–	–	–	–	–	Activity (Rattus norvegicus [1]; [21]): inactive; Activity (Rattus norvegicus [10]; [21]): inactive
N#CCC(O)c1ccccc1 (centres undefined)	–	–	–	–	–	–	–	–	–	Activity (Rattus norvegicus [1]; [21]): inactive; Activity (Rattus norvegicus [10]; [21]): inactive
N#CCC(=O)c1cccs1	inactive	–	46	Non-toxic	18	42	–	inactive	58	inhibition in vivo at 200 mg/kg (Rattus norvegicus [11]): 29%; inhibition in vivo at 200 mg/kg (Rattus norvegicus [12]): 72%
N#CCC(=O)c1ccc(F)cc1	inactive	33	56	Non-toxic	37	32	17	inactive	46	–
COc1ccc2c(c1)c(CC(=O)O)c(C)n2C(=O)c1ccc(Cl)cc1 [INDOMETHACIN]	–	–	–	–	–	–	–	–	–	inhibition in vivo at 0.5 mg/kg (Rattus norvegicus [13]): 20%; inhibition in vivo at 0.5 mg/kg (Rattus norvegicus [14]): 40%; inhibition in vivo at 1 mg/kg (Rattus norvegicus [15]): 19%; inhibition in vivo at 2 mg/kg (Rattus norvegicus [16]): 68%; inhibition in vivo at 1 mg/kg (Rattus norvegicus [17]): 46%; inhibition in vivo at 2 mg/kg (Rattus norvegicus [18]): 24%
O=C(O)CC(=O)c1ccccc1	–	–	–	–	–	–	–	–	–	Activity (Rattus norvegicus [1]; [21]): inactive; Activity (Rattus norvegicus [10]; [21]): inactive
N#CCC(=O)c1ccccc1	inactive	54	51	Non-toxic	42	48	33	inactive	63	inhibition (Cavia porcellus [19]): Active
O=C(O)C(O)C(O)c1ccccc1 (centres undefined)	–	–	–	–	–	–	–	–	–	Activity (Rattus norvegicus [1]; [21]): inactive; Activity (Rattus norvegicus [10]; [21]): inactive
N#C/C=C(\N)c1cccs1	inactive	35	44	Non-toxic	23	27	10	inactive	49	–
N#C/C=C(\N)c1ccsc1	inactive	37	48	Non-toxic	27	33	20	inactive	58	–
N#CC[14C](=O)c1ccccc1	–	–	–	–	–	–	–	–	–	Drug recovery [20]: 81.7%; Drug recovery (Plasma): 93.3%
N#C/C=C(\N)c1ccccc1	Active	39	58	–	52	54	25	Active	65	–
N#C/C=C(\N)c1cccc(F)c1	–	–	–	–	–	–	–	–	–	Activity (Rattus norvegicus [10]): Active
N#CCC(=O)c1cccc(F)c1	–	–	–	–	–	–	–	–	–	Activity (Rattus norvegicus [10]): Active
